{"source": "patent US12661316B2", "about": "“Creatine and/or creatinine compositions and related methods” (ThermoLife International, LLC, priority 2018, dated 2026)", "key": {"[1]": {"experiment": "Chemical stability of creatine nitrate, creatine monohydrate and buffered creatine in pH 2.5 and pH 6.8 buffer", "settings": "for pH of samples, initial: start of 12 days; for pH of samples, final: within a period of 12 days; for degradation rate constant: about 10 mg/ml", "procedure": "The chemical stability of creatine nitrate (CN), creatine monohydrate (CM), and buffered creatine (BC) were examined under two different storage conditions: (1) 37° C. in pH 2.5 buffer and (2) 40° C. in pH 6.8 buffer. A concentration of about 10 mg/ml of CN, CM and BC were prepared in both pH 2.5 and pH 6.8 buffer and stored in stability chambers in screw capped bottles at 37° C. and 40° C., respectively."}, "[2]": {"settings": "cited from earlier work"}, "[3]": {"settings": "dosages up to 30 g for a few days; human subject; cited from earlier work"}, "[4]": {"experiment": "Human study: side effects, liver and kidney function (Example 7)", "assay_type": "in vivo"}, "[5]": {"settings": "with caffeine intake; cited from earlier work"}, "[6]": {"settings": "cited from earlier work; for creatine degraded: three days of storage at 25° C."}, "[7]": {"settings": "radiokinetic bioavailability study; cited from earlier work"}, "[8]": {"settings": "injection of creatinine; mice; cited from earlier work"}, "[9]": {"settings": "dogs; cited from earlier work"}, "human blood cells": {"system": "human blood cells", "settings": "addition of creatinine to human blood cells; cited from earlier work"}, "[10]": {"settings": "normal human volunteers who had ingested creatinine; cited from earlier work"}}, "note": "Read-outs that look alike come from different tables or passages of the source."}
{"smiles": "CN(CC(=O)O)C(=N)N.O", "note": "[CM, creatine monohydrate]", "values": [{"measurement": "pH of samples, initial", "setting": "[1]; 37° C. in pH 2.5 buffer", "value": "3.08±0.01"}, {"measurement": "pH of samples, final", "setting": "[1]; 37° C. in pH 2.5 buffer", "value": "4.12±0.01"}, {"measurement": "degradation in solution", "setting": "[2]; refrigerated", "value": "slowed the rate of degradation"}, {"measurement": "degradation in solution", "setting": "[2]; stored at room temperature", "value": "degraded into creatinine within several days"}, {"measurement": "increase of total creatine content in skeletal muscles", "setting": "[3]", "value": "more than 20%"}, {"measurement": "negative side effects (side effect reporting questionnaire)", "setting": "[4]; in vivo", "value": "one subject reported gastrointestinal disturbances"}]}
{"smiles": "CN(CC(=O)O)C(=N)N.O=[N+]([O-])O", "note": "[CN, creatine nitrate]", "values": [{"measurement": "degradation rate constant", "setting": "[1]; 37° C. in pH 2.5 buffer", "value": "0.075±0.001", "unit": "per day"}, {"measurement": "degradation rate constant", "setting": "[1]; 40° C. in pH 6.8 buffer", "value": "0.115±0.001", "unit": "per day"}, {"measurement": "pH of samples, initial", "setting": "[1]; 40° C. in pH 6.8 buffer", "value": "2.83±0.01"}, {"measurement": "pH of samples, final", "setting": "[1]; 40° C. in pH 6.8 buffer", "value": "4.31±0.01"}, {"measurement": "negative side effects (side effect reporting questionnaire)", "setting": "[4]; ten human volunteers, nine did not report any negative side effects", "value": "one subject reported gastrointestinal disturbances"}]}
{"smiles": "CN(CC(=O)O)C(=N)N", "note": "[creatine]", "values": [{"measurement": "ergogenic effect on muscle", "setting": "[5]", "value": "completely eliminated"}, {"measurement": "stability in solution", "setting": "[6]; neutral pH (7.5 or 6.5)", "value": "relatively stable"}, {"measurement": "creatine degraded", "setting": "[6]; pH 3.5", "value": 21, "unit": "%"}, {"measurement": "creatine degraded", "setting": "[6]; pH 4.5", "value": 12, "unit": "%"}, {"measurement": "creatine degraded", "setting": "[6]; pH 5.5", "value": 4, "unit": "%"}, {"measurement": "creatine bioavailability", "setting": "[7]", "value": "sharply reduced with increasing doses"}]}
{"smiles": "CN1CC(=O)NC1=N", "note": "[creatinine]", "values": [{"measurement": "behavioural effect", "setting": "[8]", "value": "sedating or stupefying effect"}, {"measurement": "erythrocyte survival time", "setting": "[9]", "value": "significant decrease"}, {"measurement": "spontaneous hemolysis", "setting": "human blood cells", "value": "significant increase in spontaneous hemolysis"}, {"measurement": "red cell lysis", "setting": "[10]", "value": "same red cell lysing pattern"}]}
